Source: US20200399238A1, “THERAPEUTIC AURONES” (MIDDLE TENNESSEE STATE UNIVERSITY, priority 2016, published 2020)
Like-named read-outs stand apart in the source and are kept apart here.

Tests used:
[1] = tested on: Trypanosoma brucei brucei 427 cells; experiment: T. brucei culture and assay (PrestoBlue); format: cell-based; details: for IC50: mean of 2(+) independent trials, read-out: IC50 T. brucei
[2] = tested on: Leishmania amazonensis promastigotes expressing beta-lactamase; experiment: microbe, parasite or virus in culture; format: cell-based; details: for IC50: Leishmania amazonensis
[3] = tested on: Trypanosoma cruzi Tulahuen cells expressing beta-galactosidase; experiment: T. cruzi intracellular assay (beta-galactosidase, L6 host cells); details: for IC50: Trypanosoma cruzi, TULAHUEN; for Selectivity L6/TC-I: Table 3A; for Selectivity L6/TC-I / Selectivity L6/Tc-I: estimated from highest L6 dose tested where no L6 IC50; for Selectivity L6/Tc-I: Table 3B
Method: Trypanosoma cruzi Tulahuen cells expressing beta-galactosidase (Buckner et al., Antimicrob. Agents Chemother. 40 (1996) 2592-2597) were cultured using the L6 cell line as a host cell. Adherent L6 cultures were infected with freshly burst T. cruzi trypomastigotes. Approximately 4-6 days later freshly burst trypomastigotes were collected and used to maintain cultures For assays, trypomastigotes were centrifuged to a loose pellet and incubated for 3 hours to allow the trypomastigote forms to swim out of the pellet. Cells were adjusted for addition to intracellular or extracellular assays. […] For intracellular assays, cells were added to adherent L6 cells using an infection ratio of 1:1 and immediately treated with compounds. At 96 hours incubations, a solution containing chlorophenol-red-B-D-beta-galactopyranosidase (Sigma) and a lysis agent were added. After an additional 2 hour incubation, a spectrophotometer was used to quantify the resulting color change (or lack thereof) which was used to calculate inhibition.
The percentage of cell inhibition was calculated using the formula: Percent Inhibition=1−((Treated Sample value−Medium only value)/(Untreated value−Medium only value))×100. Results are expressed as the mean of two or more independent trials.

[4] = tested on: rat skeletal muscle cell line, L6; experiment: cells; format: cell-based
[5] = read-out: IC50 T. cruzi, Table 1, intracellular assay, mean of 2(+) trials (^c one trial)
[6] = read-out: IC50 T. cruzi, Table 2, intracellular assay, mean of 2(+) independent trials
[7] = read-out: IC50 TC-I, Table 3B, weighted means of two or more independent trials
[8] = Rattus norvegicus, Table 1, read-out: IC50 Toxicity (L6)
[9] = Rattus norvegicus, Table 3B, weighted means of two or more independent trials, read-out: IC50 L6
[10] = Table 2, L6 IC50 / L. amazonensis IC50
[11] = read-out: IC50 TC-I, Table 3A, weighted means of two or more independent trials
[12] = Rattus norvegicus, Table 3A, weighted means of two or more independent trials, read-out: IC50 L6
[13] = Table 2, L6 mammalian cells, read-out: IC50 Toxicity (L6)
[14] = read-out: IC50 L. amaz. (footnote c: value obtained from one trial)
[15] = Table 1, intracellular T. cruzi IC50
[16] = Table 2, L6 IC50 / T. cruzi IC50 (intracellular assay)

| Compound | IC50 ([1]; Trypanosoma brucei, Table 1) [µM] | IC50 ([2]; read-out: IC50 L. amaz.) [µM] | IC50 [3, 5] [µM] | IC50 [3, 6] [µM] | melting point [°C] | IC50 [4, 8] [µM] | Selectivity L6/La ([2]; Table 1) | other results |
| --- | --- | --- | --- | --- | --- | --- | --- | --- |
| O=C1/C(=C/c2cc(Br)cs2)Oc2ccccc21 [Aurone 9061, (Z)-2-((4-bromothiophen-2-yl)methylene)benzofuran-3(2H)-one] | > 50 | 1.7 | > 50 | > 50 | 125 to 129 | > 100 |  | IC50 [3, 7]: > 50 µM; IC50 [4, 9]: > 100 µM |
| O=C1/C(=C/c2cccc(F)c2)Oc2ccccc21 [Aurone 9024, (Z)-2-(3-fluorobenzylidene)benzofuran-3(2H)-one] | > 50 | 20.1 | 6.67 | 6.67 | 111 to 113 | > 100 | >4.98 | IC50 ([1]; Table 2): > 50 µM; Selectivity L6/La [2, 10]: >4.98; Selectivity L6/TC-I [3]: 14.99; IC50 [3, 11]: 6.67 µM; IC50 [4, 12]: > 100 µM; IC50 [4, 13]: > 100 µM |
| O=C1/C(=C/c2cc(Br)ccc2Br)Oc2ccccc21 [Aurone 3003, (Z)-2-(2,5-dibromobenzylidene)benzofuran-3(2H)-one] | > 50 | 16 | > 50 |  | 181 to 182 | > 100 | >6.24 | IC50 [3, 11]: > 50 µM; IC50 [4, 12]: > 100 µM |
| O=C1/C(=C/c2ccccc2F)Oc2ccccc21 [Aurone 9004, (Z)-2-(2-fluorobenzylidene)benzofuran-3(2H)-one] | > 50 | 10.5 | 22 | 22 | 76 to 81 | 176 | 16.83 | IC50 ([1]; Table 2): > 50 µM; IC50 [2, 14]: 10.5 µM; Selectivity L6/La [2, 10]: 16.83; Selectivity L6/Tc [3, 15]: 8.00; Selectivity L6/Tc [3, 16]: 8.00; Selectivity L6/TC-I [3]: 8.00; IC50 [3, 11]: 22 µM; IC50 [4, 12]: 176 µM |
| O=C1/C(=C/c2ccc(Br)cn2)Oc2ccccc21 [Aurone 3011, (Z)-2-((5-bromopyridin-2-yl)methylene)benzofuran-3(2H)-one] | > 50 | 2.61 | 32.9 | 32.9 | 192 to 193 | > 100 | >38.31 | IC50 ([1]; Table 2): > 50 µM; Selectivity L6/La [2, 10]: >38.31; Selectivity L6/Tc [3, 15]: >3.04; Selectivity L6/Tc [3, 16]: >3.04; Selectivity L6/Tc-I [3]: >3.04; IC50 [3, 7]: 32.9 µM; IC50 [4, 9]: > 100 µM; IC50 [4, 13]: > 100 µM |
| O=C1/C(=C/c2ccccc2C(F)(F)F)Oc2ccccc21 [Aurone 9086, (Z)-2-(2-(trifluoromethyl)benzylidene)benzofuran-3(2H)-one] | 37.6 | 1.9 | 18.5 | 18.5 | 118 to 123 | 130 |  |  |
| Cc1ccc(/C=C2\Oc3cc(O)ccc3C2=O)cc1 [Aurone 2904, (Z)-6-hydroxy-2-(4-methylbenzylidene)benzofuran-3(2H)-one] | > 50 | 5.63 | > 50 | > 50 | 258 to 264 | 70.3 |  |  |
| COc1cccc(/C=C2\Oc3ccc(C)cc3C2=O)c1O [Aurone 4003, (Z)-2-(2-hydroxy-3-methoxybenzylidene)-5-methylbenzofuran-3(2H)-one] | 27.7 | 13.4 | > 50 |  | 134 to 137 | > 100 | >7.45 | Selectivity L6/Tb ([1]; Table 1): >3.61 |
| O=C1/C(=C/c2ccc(Br)s2)Oc2ccccc21 [Aurone 9058, (Z)-2-((5-bromothiophen-2-yl)methylene)benzofuran-3(2H)-one] | > 50 | 2.73 | 34.8 | 34.8 | 155 to 158 | 79.3 | 29.05 | IC50 ([1]; Table 2): > 50 µM; Selectivity L6/La [2, 10]: 29.05; Selectivity L6/Tc [3, 15]: 2.28; Selectivity L6/Tc [3, 16]: 2.28; Selectivity L6/Tc-I [3]: 2.28; IC50 [3, 7]: 34.8 µM; IC50 [4, 9]: 79.3 µM |
| COc1ccc2c(c1)O/C(=C\c1ccc(C#N)cc1)C2=O [Aurone 5006, (Z)-4-((6-methoxy-3-oxobenzofuran-2(3H)-ylidene)methyl)benzonitrile] | 30.3 | 4.79 | > 50 | > 50 | 180 to 181 | 213 |  |  |
| CCc1ccc(/C=C2\Oc3ccccc3C2=O)cc1 [Aurone 8001, (Z)-2-(4-ethylbenzylidene)benzofuran-3(2H)-one] | 46.5 | 6.42 | 11.4 | 11.4 | 71 to 74 | > 100 |  | IC50 [2, 14]: 6.42 µM |
| COc1cc(Br)c(/C=C2\Oc3ccccc3C2=O)cc1OC [Aurone 9056, (Z)-2-(2-bromo-4,5-dimethoxybenzylidene)benzofuran-3(2H)-one] | 21.9 | 1.83 | 36 | 36 | 144 to 147 | > 100 |  |  |
| O=C1/C(=C/c2cccc(C(F)(F)F)c2)Oc2ccccc21 [Aurone 9085, (Z)-2-(3-(trifluoromethyl)benzylidene)benzofuran-3(2H)-one] | > 50 | 4.43 | 11.1 | 11.1 | 128 to 133 | 73.4 |  |  |
| O=C1/C(=C/c2ccc(CO)o2)Oc2ccccc21 [Aurone 9067, (Z)-2-((5-(hydroxymethyl)furan-2-yl)methylene)benzofuran-3(2H)-one] | 34.9 | < 1 | 12.5 | 12.5 | 61 to 63 | 31.1 |  | IC50 [3, 7]: 12.5 µM; IC50 ([3]; read-out: T. cruzi IC50 dose): 12.5 µM; IC50 [4, 9]: 31.1 µM; IC50 ([4]; Rattus norvegicus, read-out: toxicity in L6): 31.1 µM |
| N#Cc1ccc(/C=C2\Oc3cc(O)ccc3C2=O)cc1 [Aurone 9076, (Z)-4-((6-hydroxy-3-oxobenzofuran-2(3H)-ylidene)methyl)benzonitrile] | > 50 | 2.44 | 26.3 | 26.3 | 112 to 115 | > 100 |  |  |
| O=C1/C(=C/c2cccc(I)c2)Oc2ccccc21 [Aurone 9028, (Z)-2-(3-iodobenzylidene)benzofuran-3(2H)-one] | > 50 | 2.61 | 7.54 | 7.54 | 99 to 105 | > 100 | >38.31 | IC50 ([1]; Table 2): > 50 µM; Selectivity L6/La [2, 10]: >38.31; Selectivity L6/Tc [3, 15]: >13.26; Selectivity L6/Tc [3, 16]: >13.26; Selectivity L6/TC-I [3]: >13.26; IC50 [3, 11]: 7.54 µM; IC50 [4, 12]: > 100 µM; IC50 [4, 13]: > 100 µM |
| O=C1/C(=C/c2cccc(Cl)c2)Oc2ccccc21 [Aurone 9026, (Z)-2-(3-chlorobenzylidene)benzofuran-3(2H)-one] | 27.4 | 12.6 | 11 |  | 86 to 89 | 77.5 | 6.15 | Selectivity L6/Tb ([1]; Table 1): 2.83; Selectivity L6/Tb ([1]; Table 3A, estimated from highest L6 dose tested where no L6 IC50): 2.83; Selectivity L6/Tc [3, 15]: 7.07; Selectivity L6/TC-I [3]: 7.07; IC50 [3, 11]: 11 µM; IC50 [4, 12]: 77.5 µM |
| O=C1/C(=C/c2cc3ccccc3o2)Oc2ccccc21 [Aurone 3002, (Z)-2-(benzofuran-2-ylmethylene)benzofuran-3(2H)-one] | 20.2 | 6.48 | 6.44 | 6.44 | 145 to 150 | > 100 | >15.43 | Selectivity L6/Tb ([1]; Table 1): >4.96; Selectivity L6/Tb ([1]; Table 2, L6 IC50 / T. brucei IC50): >4.96; Selectivity L6/Tb ([1]; Table 3B, estimated from highest L6 dose tested where no L6 IC50): >4.96; Selectivity L6/La [2, 10]: >15.43; Selectivity L6/Tc [3, 15]: >15.53; Selectivity L6/Tc [3, 16]: >15.53; Selectivity L6/Tc-I [3]: >15.53; IC50 [3, 7]: 6.44 µM; IC50 [4, 9]: > 100 µM; IC50 [4, 13]: > 100 µM |
| O=C1/C(=C/c2cccc3[nH]ccc23)Oc2ccccc21 [Aurone 9063, (Z)-2-((1H-indol-4-yl)methylene)benzofuran-3(2H)-one] | > 50 | 1.13 | 18.9 | 18.9 | 230 to 238 | 94 |  | IC50 [3, 7]: 18.9 µM; IC50 [4, 9]: 94 µM |
| O=C1/C(=C/c2cccs2)Oc2cc(O)ccc21 [Aurone 2901, (Z)-6-hydroxy-2-(thiophen-2-ylmethylene)benzofuran-3(2H)-one] | > 50 | 19.4 | > 50 |  | 300 to 303 | > 100 |  |  |
| Cc1ccc(/C=C2\Oc3ccc(Br)cc3C2=O)cc1 [Aurone 6000, (Z)-5-bromo-2-(4-methylbenzylidene)benzofuran-3(2H)-one] | > 50 | 8.43 | > 50 | > 50 | 115 to 120 | > 100 |  |  |
